Assay results taken from patent publication EP1488698A1, “Compositions for descreasing intracellular inositol trisphosphate concentration and uses thereof” (priority 1995, dated 1997).

Experiments:
[1] = system: phospholipase C isoforms beta, delta, and gamma; assay: Free phospholipase C activity in solution (kinetics); format: biochemical; conditions: for KM / diminution in Vmax / increase in calcium ion concentration required for optimal activity: 10 µM lysocerebroside or 5 µM lysosphingomyelin
Method: The effects of sphingosine, lysocerebroside, and lysosphingomyelin on the kinetics of pure, immunologically isolated phospholipase C isoforms beta, delta, and gamma (which are commercially available) was examined. For each isoform, 10 µM sphingosine was added to a reaction medium consisting of 1 µg phospholipase C isoform/ml, Tris-malate buffer (50 mM, pH 7.0) containing 100 µM phosphatidyl inositol bis-phosphate tri-ammonium salt, 0.01 µCi tritium labeled phosphatidyl inositol bis-phosphate, 100 mM NaCl, 10 mM CaCl2, and 5 mM 2-merceptoethanol.

PC12 cells = assay: Phosphoinositide hydrolysis assay (InsP3 production) in PC12 cells; format: cell-based, rat; conditions: for sensitivity of PC12 cells to bradykinin: even at relatively moderate levels
Description: PC12 cells, from a rat adrenal pheochromocytoma cell line, were used as a model of neurons from the peripheral nervous system. These cells were obtained from a common laboratory cell culture stock and grown in plastic culture flasks in Dulbecco's modified Eagle's medium (DMEM) supplemented with 5% heat-inactivated horse serum and 10% heat-inactivated fetal calf serum (PC12 cells are also available from the American Type Culture Collection under the Accession number CRL 1721). The cells were grown at 37°C in 5% CO2 in air until a confluent monolayer formed. The cells were dispersed into 24-well plastic tissue culture plates at a density of 10^5 cells per well and used for the phosphoinositide hydrolysis assays (as described in Example 2).
Receptor-stimulated and basal unstimulated hydrolysis of phosphoinositides was measured by the following procedure. In order to label the cellular phosphoinositides metabolically, the primary cultures of chick cortical neurons (described in Example 1) were incubated overnight with 0.5 ml Dulbecco's modified Eagle's medium containing 1 µCi [^3H]myo-inositol per well. The cells were then washed twice with 1 ml Dulbecco's phosphate-buffered saline (PBS) and 0.5 ml of PBS containing 4.5 g/L glucose was added. Sphingosine, psychosine, lysosulphatide, or lysosphingomyelin, prepared as the hydrochloride salt dissolved in water, were then added to produce the desired extracellular concentration in specific wells, and the 24-well plates were swirled gently on a rotary shaker for 1 hour at 23°C. The cells were then washed twice with 1 ml PBS, and pre-incubated for 15 minutes at 37°C with 0.5 ml PBS containing 10 mM LiCl and the compound to be tested was added. After 30 minutes, the experiment was terminated by adding 1 ml of ice-cold methanol to each well and transferring the material in each well to polypropylene tubes that contained 0.4 ml water and 1 ml chloroform. The tubes were vortexed thoroughly, then centrifuged at 500 x g for 5 minutes to separate the aqueous and chloroform phases. For each sample, a 1.5-ml aliquot of the upper (aqueous) phase was applied to a small column containing BioRad AG1X8 resin (formate form). Free [^3H]inositol and [^3H]glycerophosphoinositol were washed through the column with 5 ml of a solution containing 5 mM sodium borate and 60 mM sodium formate. The total phosphorylated [^3H] inositol fraction was eluted from the column for radiometric scintillation spectrometry analysis with 3 ml 1.0 M ammonium formate/0.1 M formic acid.
In addition, a 0.5 ml aliquot of the lower (chloroform) phase of each sample was analyzed radiometrically by scintillation spectrometry in order to determine the quantity of lipid-bound [^3H]myo-inositol. Estimation of phosphoinositide hydrolysis by phospholipase C is based upon the quantity of [^3H]inositol phosphates produced, and is expressed as the percentage of the latter relative to total free and componential [^3H]inositol (dpm ammonium formate + dpm chloroform fractions).

cortical neurons = assay: Calcium ion signalling (fura 2) in intact cortical neurons; format: cell-based, chick; conditions: neurons loaded to 150 ± 20 pmoles per mg protein; 10 µM glutamate agonist, 30 minutes
Method: Metabotropic receptor function was examined in intact neurons by assaying lysosphingolipid modulation of calcium ion signalling. Approximately 1 X 10^6 cortical neurons were cultured on rectangular L-polylysine-coated coverslips and loaded with lysocerebroside or lysosphingomyelin to a level of 150 ± 20 pmoles per mg protein. The neurons were returned to complete Ham's high glucose medium/DMEM (1:1, vol:vol) and infiltrated with 5 µM fura 2/AM (Molecular Probes, Eugene, OR). Fura 2 is a calcium chelator whose fluorescence absorbance shifts to shorter wavelength upon calcium ion binding is measurable in intact cells. A change in intraneuronal calcium ion concentration was monitored as a change in the fluorescence spectrum.
The neurons were exposed to 10 µM glutamate agonist (for example, ibotenate) for 30 minutes at 37°C. The coverslips were then transferred to quartz cuvettes in medium containing 250 µM sulfinpyrazone to prevent fura 2/AM diffusion. Fluorescence ratios were recorded in a Perkin-Elmer LS-5 Fluorescence Spectrometer thermostatted at 37°C at excitation wavelengths of 340 and 380 nm, and emission measurement at 500 nm. Calcium ion signalling in agonist-stimulated neurons was 3.0 ± 0.2 arbitrary units for ibotenate-exposed neurons.

cultured neurons = assay: Lysosphingolipid content of cultured neurons by NBDZF fluorescence tagging; format: cell-based, chick; conditions: following exposure to 50 µM lysosphingolipid for 1 hour
Description: Agonist-binding to metabotropic receptors influences the levels of lysosphingolipid in neuronal membranes. However, there is no convenient methodology available for the measurement of lysosphingolipid content in cultured neurons. As a result, a sensitive method of fluorometric tracing has been devised and is described herein. The measurement of lysosphingolipid content in cultured neurons is based on the stable fluorescence-tagging procedure using 4-fluoro, 7-nitrobenzofuran (NBDZF) described by Nozowa et al J. Neutochem. 59:607-609, 1992). The procedure was applied to: resting neurons; neurons exposed to 100 µM metabotropic receptor agonist for 1 hour; resting neurons exogenously enriched in lysosphingolipids; and neurons exogenously enriched in lysosphingolipids and exposed to metabotropic receptor agonist for 1 hour. The neurons were scraped in batches of 10^7 (1 Petri dish, approximately 8 cm in diameter, is equivalent to 2 mg membrane protein) and subjected to anaylsis.
Total lipids were removed from the neuron samples by repeated extraction with chloroform:methanol (2:1, vol:vol). The lysosphingolipids were separated from total neuronal lipid in 90 ± 5 % recovery yield (n = 10) by the stepped chromatographic procedure of Van Veldhoven et al. (Anal. Biochem. 183:177-189, 1989). The recovered lysosphingolipids were stably tagged with NBDZF by the rapid procedure of Nozowa et al. (supra). The fluorescence tagged neuronal lysosphingolipids were separated in parallel with reference standards NBDZF-Sph, NBDZF-Psy, and NBDZF-Lsm on high performance silica gel thin layer chromatography plates with acetonitrile:H2O (10:0.5, vol:vol). The highly fluorescent, well separated bands were scraped from the plate. The fluorescence tagged lysosphingolipids are eluted from the scraped silica gel with methanol:1 N HCl (1:0.02, vol:vol). The fluorescence tagged lysosphingolipid eluates were quantitated against reference standards by fluorescence measurement in a Perkin-Elmer LS-5 Fluorescence Spectrometer.
Sphingolipid content of neurons exposed to sphingosine, lysocerebroside, and lysosphingomyelin was examined as follows. A Petri dish containing approximately 10^7 neurons was incubated with 5 µCi [^3H]myo-Ins in 3 ml DMEM overnight to prelabel the phosphoinositide InsP3 may contain. The neurons were washed with PBS and 3 ml of PBS containing 4.5 g/l glucose was added. Preparations of sphingosine, lysocerebroside, lysosphingomyelin (Sigma Chemical Co., St. Louis, MO) and combinations of each were prepared as the hydrochloride salt dissolved in PBS. The lysosphingolipids were added to the Petri dishes to produce a concentration ranging from 0 - 150 µM. The dishes were held at room temperature for 0.5, 1, or 2 hours, then washed with PBS and incubated with 5 Units of trypsin in glucose/PBS for […] at 37°C. Trypsinization removes non-specifically bound lysosphingolipids that may adhere to extracellular plasma membrane protein domains. Non-specific adherence between cationic micelles of lysosphingolipids and the neuronal glycocalyx is avoided by performing the experiments with lysosphingolipid concentrations below the critical micelle concentration. Neurons were analyzed for lysosphingolipid content as described above.

Row | Compound | KM [1] | diminution in Vmax [1] | increase in calcium ion concentration required for optimal activity [1] [fold] | InsP3 production (PC12 cells; PC12 cells, Fig 3) | sensitivity of PC12 cells to bradykinin (PC12 cells; Fig 3) | agonist-elicited calcium signalling in lysosphingolipid-loaded neurons (cortical neurons) | content of sphingosine in the neurons (cultured neurons) [pmoles/mg protein] | IC50 (PC12 cells; Rattus norvegicus, PC-12, 0.5 h, read-out: concentration sufficient to reduce a metabotropic response to bradykinin to half maximum) [µM] | KM for substrate phosphatidylinositol bis-phosphate ([1]; 10 µM sphingosine) | calcium ion concentration required for optimal activity ([1]; 10 µM sphingosine) | increase in Vmax ([1]; 10 µM sphingosine, each isoform) | basal, unstimulated level of InsP3 production (PC12 cells; PC12 cells, Fig 3)
1 | CCCCCCCCCCCCC/C=C/[C@@H](O)[C@@H](N)COP(=O)([O-])OCC[N+](C)(C)C [lysosphingomyelin, sphingosyl phosphorylcholine] | no change | 60% ± 10% | 5 | strongly inhibit | can entirely block | no calcium signalling measurably over controls | 105 ± 0.15 | – | – | – | – | –
2 | CCCCCCCCCCCCC/C=C/[C@@H](O)[C@@H](N)CO[C@@H]1O[C@H](CO)[C@H](O)[C@H](O)[C@H]1O [psychosine] | no change | 60% ± 10% | 5 | strongly inhibit | can entirely block | no calcium signalling measurably over controls | 220 ± 45 | 50 | – | – | – | –
3 | CCCCCCCCCCCCC/C=C/[C@@H](O)[C@@H](N)CO [sphingosine] | – | – | – | – | – | – | 430 ± 70 | – | no effect | a decrease | approximately 2 fold | tonically upregulated
